Measurements from patent US10035778B2, “Meta-azacyclic amino benzoic acid derivatives as pan integrin antagonists” (Saint Louis University, priority 2015, dated 2018).

Columns and labels:
Assay type in all cases: binding
[1] = target: Recombinant human integrin α8β1 (Homo sapiens (Human), UniProt P05556+P53708); experiment: Solid Phase Receptor Assay (SPRA) for α8β1 function; settings: mouse nephronectin-coated plate
Experimental: 7. Solid Phase Receptor Assay (SPRA) for α8β1 Function
Recombinant mouse nephronectin protein (R&D Systems, Inc, 4298-NP) diluted to 1 μg/mL in TBS+ buffer (25 mM Tris pH 7.4, 137 mM NaCl, 2.7 mM KCl, 1 mM CaCl2, 1 mM MgCl2, 1 mM MnCl2) was added to wells (50 μl/well) of a 96-well half-well transparent microtiter plate (Greiner 675061), and incubated overnight at 4° C. Wells were washed 3 times with 150 μL TBS+ and 150 μL of blocking buffer (TBS+ with 1% bovine serum albumin, Sigma A7906) were added. The plate was incubated for 1 hr at 37° C. and then washed 3× with TBS+. Recombinant human integrin α8β1 (R&D Systems, pre-launch) was diluted to 0.25 μg/mL in TBS+/0.1% bovine serum albumin. Compounds were diluted 1:100 into the integrin solution and 50 μL added to empty wells of the washed nephronectin-coated plate according to a standard template with each sample repeated in triplicate. After incubation for two hours at room temperature, the plate was washed 3× with 150 μL of TBS+. To each well, 50 μL of biotinylated anti-β antibody (R&D Systems, BAF1778) at 0.5 μg/mL in TBS+/0.1% BSA were added and the plate was covered and incubated for 1 hr at room temperature. After washing the plate 3× with 150 μL of TBS+ buffer, 50 μL of streptavidin-conjugated horseradish peroxidase (R&D Systems, DY998) diluted in TBS+ blocking buffer were added to the wells and the plate incubated for 20 min at room temperature. The plate was washed 3× with TBS+ followed by 50 μL of TMB substrate (Sigma T4444) added to each well and the plate incubated for 20 min at room temperature. Plates were read by colorimetric detection at 650 nm wavelength using a Tecan Safire II plate reader. Concentration-response curves were constructed by non-linear regression (best fit) analysis, and IC50 values were calculated for each compound.

[2] = target: Recombinant human integrin αvβ5 (Homo sapiens (Human), UniProt P06756+P18084); experiment: Solid Phase Receptor Assay (SPRA) for αvβ5 function; settings: vitronectin-coated plate
Sequence of Recombinant human integrin αvβ5 (P06756 31-992): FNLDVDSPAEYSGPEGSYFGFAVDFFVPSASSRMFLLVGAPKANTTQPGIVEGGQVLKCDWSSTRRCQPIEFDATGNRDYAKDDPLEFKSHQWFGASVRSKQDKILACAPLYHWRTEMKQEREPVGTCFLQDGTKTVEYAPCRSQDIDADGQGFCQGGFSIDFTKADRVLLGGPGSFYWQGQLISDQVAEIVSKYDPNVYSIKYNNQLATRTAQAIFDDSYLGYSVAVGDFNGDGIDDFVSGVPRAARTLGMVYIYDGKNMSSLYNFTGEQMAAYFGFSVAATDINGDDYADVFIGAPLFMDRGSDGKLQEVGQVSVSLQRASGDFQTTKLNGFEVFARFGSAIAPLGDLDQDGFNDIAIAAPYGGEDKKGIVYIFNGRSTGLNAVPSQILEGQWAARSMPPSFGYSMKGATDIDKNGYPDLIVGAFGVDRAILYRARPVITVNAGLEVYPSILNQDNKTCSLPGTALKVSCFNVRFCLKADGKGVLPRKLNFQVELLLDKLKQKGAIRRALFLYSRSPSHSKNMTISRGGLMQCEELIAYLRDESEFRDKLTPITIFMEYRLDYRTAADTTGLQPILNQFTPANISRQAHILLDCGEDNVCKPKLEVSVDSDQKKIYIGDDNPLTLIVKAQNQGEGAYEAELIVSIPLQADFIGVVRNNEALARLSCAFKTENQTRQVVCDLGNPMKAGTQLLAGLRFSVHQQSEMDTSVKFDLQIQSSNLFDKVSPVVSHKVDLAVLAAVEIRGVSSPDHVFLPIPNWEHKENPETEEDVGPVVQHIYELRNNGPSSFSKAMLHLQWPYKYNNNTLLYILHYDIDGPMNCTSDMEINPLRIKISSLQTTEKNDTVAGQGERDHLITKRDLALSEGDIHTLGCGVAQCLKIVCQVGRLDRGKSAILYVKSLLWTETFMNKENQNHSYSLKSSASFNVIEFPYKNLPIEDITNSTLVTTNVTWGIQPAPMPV
Sequence of Recombinant human integrin αvβ5 (P18084 24-719): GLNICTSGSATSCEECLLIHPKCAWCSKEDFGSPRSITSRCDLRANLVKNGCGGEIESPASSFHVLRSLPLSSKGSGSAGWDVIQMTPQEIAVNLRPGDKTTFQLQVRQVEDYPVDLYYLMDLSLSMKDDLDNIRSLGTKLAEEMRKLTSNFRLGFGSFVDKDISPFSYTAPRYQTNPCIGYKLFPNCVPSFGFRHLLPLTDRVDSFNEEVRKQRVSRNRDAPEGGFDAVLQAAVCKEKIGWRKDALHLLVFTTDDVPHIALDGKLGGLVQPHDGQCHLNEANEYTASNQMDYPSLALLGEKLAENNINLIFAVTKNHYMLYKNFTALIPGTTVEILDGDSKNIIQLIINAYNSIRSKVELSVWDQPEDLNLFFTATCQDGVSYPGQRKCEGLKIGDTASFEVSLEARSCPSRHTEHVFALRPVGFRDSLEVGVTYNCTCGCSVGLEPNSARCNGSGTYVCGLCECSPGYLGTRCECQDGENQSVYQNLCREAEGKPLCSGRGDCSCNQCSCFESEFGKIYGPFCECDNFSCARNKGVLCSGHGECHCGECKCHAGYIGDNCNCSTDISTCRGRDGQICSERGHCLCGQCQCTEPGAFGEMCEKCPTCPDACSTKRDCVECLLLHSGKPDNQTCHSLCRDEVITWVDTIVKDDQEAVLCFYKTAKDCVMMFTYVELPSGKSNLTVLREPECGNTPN
Experimental: 4. Solid Phase Receptor Assay (SPRA) for αvβ5 Function
Recombinant human vitronectin (R&D Systems, 2308-VN) at 0.25 μg/mL in TBS+ buffer (25 mM Tris pH 7.4, 137 mM NaCl, 2.7 mM KCl, 1 mM CaCl2, 1 mM MgCl2, 1 mM MnCl2) was added to wells (50 μL/well) of a 96-well half-well transparent microtiter plate (Greiner 675061) and incubated overnight at 4° C. Wells were washed 3 times with 150 μL TBS+ and 150 μL of blocking buffer (TBS+ with 1% bovine serum albumin, Sigma A7906) were added. The plate was incubated for 1 hr at 37° C. and then washed 3× with TBS+ buffer. Recombinant human integrin αvβ5 (R&D Systems, 2528-AV) was diluted to 0.1 μg/mL in TBS+/0.1% bovine serum albumin. Compounds were diluted 1:100 into the integrin solution and then 50 μL added to empty wells of the washed vitronectin-coated plate according to a standard template with each sample repeated in triplicate. After incubation for two hours at room temperature, the plate was washed 3× with 150 μL of TBS+ buffer. To each well, 50 μl of biotinylated anti-αv antibody (R&D Systems, BAF1219) at 0.5 μg/mL in TBS+/0.1% BSA at 0.5 μg/mL were added and the plate covered and incubated for 1 hr at room temperature. After washing the plate 3× with 150 μL of TBS+ buffer, 50 μL of streptavidin-conjugated horseradish peroxidase (R&D Systems DY998) diluted in TBS+ blocking buffer were added to the wells and the plate incubated for 20 min at room temperature. The plate was washed 3× with TBS+ buffer followed by 50 μL of TMB substrate (Sigma T4444) added to each well and the plate incubated for 20 min at room temperature. Plates were read by colorimetric detection at 650 nm wavelength using a Tecan Safire II plate reader. Concentration-response curves were constructed by non-linear regression (best fit) analysis, and IC50 values were calculated for each compound.

[3] = target: Recombinant human integrin αvβ3 (Homo sapiens (Human), UniProt P05106+P06756); experiment: Solid Phase Receptor Assay (SPRA) for αvβ3 function; settings: vitronectin-coated plate
Sequence of Recombinant human integrin αvβ3 (P06756 31-992): as the sequence (P06756 31-992) above
Sequence of Recombinant human integrin αvβ3 (P05106 27-718): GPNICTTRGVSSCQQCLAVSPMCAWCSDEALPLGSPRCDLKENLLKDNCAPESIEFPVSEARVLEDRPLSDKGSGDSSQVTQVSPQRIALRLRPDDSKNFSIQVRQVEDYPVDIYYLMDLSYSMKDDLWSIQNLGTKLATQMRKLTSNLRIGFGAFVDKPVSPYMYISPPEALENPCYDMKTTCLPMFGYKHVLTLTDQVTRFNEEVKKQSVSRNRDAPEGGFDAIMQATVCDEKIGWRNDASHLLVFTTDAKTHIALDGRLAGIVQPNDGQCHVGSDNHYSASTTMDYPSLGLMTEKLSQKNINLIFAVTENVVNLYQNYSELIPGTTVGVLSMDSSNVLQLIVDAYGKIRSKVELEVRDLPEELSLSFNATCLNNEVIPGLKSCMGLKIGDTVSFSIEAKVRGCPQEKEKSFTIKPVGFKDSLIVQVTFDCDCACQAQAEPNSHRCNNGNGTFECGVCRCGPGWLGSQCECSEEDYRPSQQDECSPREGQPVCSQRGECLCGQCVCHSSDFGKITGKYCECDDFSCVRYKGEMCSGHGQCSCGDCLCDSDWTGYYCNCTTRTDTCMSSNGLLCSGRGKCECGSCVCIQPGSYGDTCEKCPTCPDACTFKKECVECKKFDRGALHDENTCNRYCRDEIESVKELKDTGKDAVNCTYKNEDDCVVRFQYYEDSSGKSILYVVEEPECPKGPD
Experimental: 3. Solid Phase Receptor Assay (SPRA) for αvβ3 Function
Recombinant human vitronectin (R& D Systems, 2308-VN) diluted to 1 μg/mL in TBS+ buffer (25 mM Tris pH 7.4, 137 mM NaCl, 2.7 mM KCl, 1 mM CaCl2, 1 mM MgCl2, 1 mM MnCl2) was added to wells (50 μL/well) of a 96-well half-well transparent microtiter plate (Greiner 675061) and incubated overnight at 4° C. Wells were washed 3 times with 150 μL TBS+ and 150 μL of blocking buffer (TBS+ with 1% bovine serum albumin, Sigma A7906) were added. The plate was incubated for 1 hr at 37° C. and then washed 3× with TBS+ buffer. Recombinant human integrin αvβ3 (R&D Systems, 3050-AV) was diluted to 1 μg/mL in TBS+/0.1% bovine serum albumin. Compounds were diluted 1:100 into the integrin solution and then 50 μL added to empty wells of the washed vitronectin-coated plate according to a standard template with each sample repeated in triplicate. After incubation for two hours at room temperature, the plate was washed 3× with 150 μL of TBS+ buffer. To each well, 50 μL of biotinylated anti-αv antibody (R&D Systems, BAF1219) at 0.5 μg/mL in TBS+/0.1% BSA were added and the plate covered and incubated for 1 hr at room temperature. After washing the plate 3× with 150 μL of TBS+ buffer, 50 μL of streptavidin-conjugated horseradish peroxidase (R&D Systems, DY998) diluted in TBS+ blocking buffer were added to the wells and the plate incubated for 20 min at room temperature. The plate was washed 3× with TBS+ buffer followed by 50 μL of TMB substrate (Sigma, T4444) added to each well and the plate was incubated for 20 min at room temperature. Plates were read by colorimetric detection at 650 nm wavelength using a Tecan Safire II plate reader. Concentration-response curves were constructed by non-linear regression (best fit) analysis, and IC50 values were calculated for each compound.

Sequence of Recombinant human integrin α8β1 (P53708 39-1012): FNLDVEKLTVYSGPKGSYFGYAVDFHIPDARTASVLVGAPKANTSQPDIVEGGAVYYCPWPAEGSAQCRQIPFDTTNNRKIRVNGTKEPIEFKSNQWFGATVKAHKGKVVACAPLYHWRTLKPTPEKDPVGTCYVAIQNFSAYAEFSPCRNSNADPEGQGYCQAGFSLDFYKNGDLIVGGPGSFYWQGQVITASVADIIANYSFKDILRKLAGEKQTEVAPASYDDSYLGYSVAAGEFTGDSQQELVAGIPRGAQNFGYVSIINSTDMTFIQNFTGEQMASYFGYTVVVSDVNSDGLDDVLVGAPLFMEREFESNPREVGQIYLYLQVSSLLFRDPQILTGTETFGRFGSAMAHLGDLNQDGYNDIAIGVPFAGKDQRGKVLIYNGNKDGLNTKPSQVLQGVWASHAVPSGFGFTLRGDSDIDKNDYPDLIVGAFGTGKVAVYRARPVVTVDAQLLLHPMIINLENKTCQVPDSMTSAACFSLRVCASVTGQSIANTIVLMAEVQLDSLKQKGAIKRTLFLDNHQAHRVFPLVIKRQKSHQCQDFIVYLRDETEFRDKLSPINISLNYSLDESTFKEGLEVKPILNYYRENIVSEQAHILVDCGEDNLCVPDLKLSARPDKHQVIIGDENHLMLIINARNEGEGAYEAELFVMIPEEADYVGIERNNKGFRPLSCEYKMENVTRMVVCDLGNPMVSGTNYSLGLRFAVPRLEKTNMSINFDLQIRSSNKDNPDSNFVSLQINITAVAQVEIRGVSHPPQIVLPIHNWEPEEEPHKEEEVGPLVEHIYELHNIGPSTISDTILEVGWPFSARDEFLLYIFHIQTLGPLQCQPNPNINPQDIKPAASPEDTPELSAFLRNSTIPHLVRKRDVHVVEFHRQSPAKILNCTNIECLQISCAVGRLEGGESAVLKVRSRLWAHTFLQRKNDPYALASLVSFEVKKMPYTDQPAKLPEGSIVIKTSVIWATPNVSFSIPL
Sequence of Recombinant human integrin α8β1 (P05556 21-728): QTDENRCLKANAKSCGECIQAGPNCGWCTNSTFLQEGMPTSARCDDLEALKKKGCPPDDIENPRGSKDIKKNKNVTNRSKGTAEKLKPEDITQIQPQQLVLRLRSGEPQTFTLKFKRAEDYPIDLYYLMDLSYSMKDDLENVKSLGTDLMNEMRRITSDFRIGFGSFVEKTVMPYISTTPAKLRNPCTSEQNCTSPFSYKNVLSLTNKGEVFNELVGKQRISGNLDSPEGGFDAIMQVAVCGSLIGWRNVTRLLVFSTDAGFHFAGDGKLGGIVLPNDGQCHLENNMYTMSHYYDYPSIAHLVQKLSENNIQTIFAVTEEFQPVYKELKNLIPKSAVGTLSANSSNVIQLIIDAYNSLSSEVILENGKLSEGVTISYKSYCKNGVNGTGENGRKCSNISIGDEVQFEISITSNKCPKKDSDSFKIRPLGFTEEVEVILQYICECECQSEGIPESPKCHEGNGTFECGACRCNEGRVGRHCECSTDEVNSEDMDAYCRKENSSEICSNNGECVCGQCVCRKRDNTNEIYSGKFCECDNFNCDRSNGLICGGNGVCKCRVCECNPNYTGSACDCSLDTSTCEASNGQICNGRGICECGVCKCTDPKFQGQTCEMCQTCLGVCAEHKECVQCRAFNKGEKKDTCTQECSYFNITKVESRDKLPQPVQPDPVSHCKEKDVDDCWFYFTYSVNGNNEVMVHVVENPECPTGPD

In the case of `O=C(O)C[C@H](NC(=O)CNC(=O)c1cc(O)cc(NC2=NCC(O)CN2)c1)c1cc(Br)cc(Br)c1` (stereo partly drawn) [Example 1, (3S)-3-(3,5-dibromophenyl)-3-(2-(3-hydroxy-5-((5-hydroxy-1,4,5,6-tetrahydropyrimidin-2-yl)amino)benzamido)acetamido)propanoic acid], the IC50 [1] is reported as 1.3 nM, the IC50 [2] is reported as 0.2 nM and the IC50 [3] is reported as 2.3 ± 0.1 nM.

In the case of `O=C(O)C[C@H](NC(=O)CNC(=O)c1cc(O)cc(NC2=NCC(O)CN2)c1)c1cc(Br)cc(C(F)(F)F)c1` (stereo partly drawn) [Example 2, (3S)-3-(3-bromo-5-(trifluoromethyl)phenyl)-3-(2-(3-hydroxy-5-((5-hydroxy-1,4,5,6-tetrahydropyrimidin-2-yl)amino)benzamido)acetamido)propanoic acid], the IC50 [1] is reported as 1.5 nM, the IC50 [2] is reported as 0.4 nM and the IC50 [3] is reported as 2.7 ± 0.4 nM.

`O=C(O)C[C@H](NC(=O)CNC(=O)c1cc(O)cc(NC2=NCC(O)CN2)c1)c1cc(Cl)cc(C(F)F)c1` (stereo partly drawn) [Example 3, (3S)-3-[3-chloro-5-(difluoromethyl)phenyl)-3-(2-(3-hydroxy-5-((5-hydroxy-1,4,5,6-tetrahydropyrimidin-2-yl)amino)benzamido)acetamido]propanoic acid] showed an IC50 [1] of 0.9 nM, an IC50 [2] of 0.2 nM and an IC50 [3] of 1 nM.

Work on `O=C(O)C[C@H](NC(=O)CNC(=O)c1cc(O)cc(NC2=NCC(O)CN2)c1)c1cc(Br)cc(C(F)F)c1` (stereo partly drawn) [Example 4, (3S)-3-[3-bromo-5-(difluoromethyl)phenyl)-3-(2-(3-hydroxy-5-((5-hydroxy-1,4,5,6-tetrahydropyrimidin-2-yl)amino)benzamido)acetamido]propanoic acid] yielded an IC50 [1] of 0.6 nM, an IC50 [2] of 0.4 nM and an IC50 [3] of 3 nM.

With `O=C(O)C[C@H](NC(=O)CNC(=O)c1cc(O)cc(NC2=NCC(O)CN2)c1)c1cc(Cl)cc(C(F)(F)F)c1` (stereo partly drawn) [Example 5, (3S)-3-[3-chloro-5-(trifluoromethyl)phenyl)-3-(2-(3-hydroxy-5-((5-hydroxy-1,4,5,6-tetrahydropyrimidin-2-yl)amino)benzamido)acetamido]propanoic acid] the IC50 [1] was 0.9 nM, the IC50 [2] was 0.5 nM and the IC50 [3] was 3 nM.

For `O=C(O)C[C@H](NC(=O)CNC(=O)c1cc(O)cc(NC2=NCC(O)CN2)c1)c1cc(Cl)cc(Br)c1` (stereo partly drawn) [Example 6, (3S)-3-[3-bromo-5-chloro-phenyl)-3-(2-(3-hydroxy-5-((5-hydroxy-1,4,5,6-tetrahydropyrimidin-2-yl)amino)benzamido)acetamido]propanoic acid], the IC50 [1] was 0.5 nM, the IC50 [2] was 0.2 nM and the IC50 [3] was 1 nM.

For `O=C(O)C[C@H](NC(=O)CNC(=O)c1cncc(NC2=NCC(O)CN2)c1)c1cc(Cl)cc(C(F)(F)F)c1` (stereo partly drawn) [Example 7], the IC50 [1] was 0.6 nM, the IC50 [2] was 0.2 nM and the IC50 [3] was 3 nM.

`O=C(O)C[C@H](NC(=O)CNC(=O)c1cncc(NC2=NCC(O)CN2)c1)c1cc(Cl)cc(Br)c1` (stereo partly drawn) [Example 8, (3S)-3-(3-bromo-5-chloro-phenyl)-3-[[2-[[5-[(5-hydroxy-1,4,5,6-tetrahydropyrimidin-2-yl)amino]pyridine-3-carbonyl]amino]acetyl]amino]propanoic acid] showed an IC50 [1] of 0.6 nM, an IC50 [2] of 0.1 nM and an IC50 [3] of 4 nM.

`O=C(O)C[C@H](NC(=O)CNC(=O)c1cncc(NC2=NCC(O)CN2)c1)c1cc(Br)cc(C(F)(F)F)c1` (stereo partly drawn) [Example 9, (3S)-3-[3-bromo-5-(trifluoromethyl)phenyl]-3-[[2-[[5-[(5-hydroxy-1,4,5,6-tetrahydropyrimidin-2-yl)amino]pyridine-3-carbonyl]amino]acetyl]amino]propanoic acid] was tested, and the IC50 [1] was 0.5 nM, the IC50 [2] was 0.3 nM and the IC50 [3] was 3 nM.

`O=C(O)C[C@H](NC(=O)CNC(=O)c1cc(O)cc(NC2=NCC(O)CN2)c1)c1cc(C(F)(F)F)cc(C(F)(F)F)c1` (stereo partly drawn) [Example 10, (3S)-3-[3,5-bis(trifluoromethyl)phenyl)-3-(2-(3-hydroxy-5-((5-hydroxy-1,4,5,6-tetrahydropyrimidin-2-yl)amino)benzamido)acetamido]propanoic acid] showed an IC50 [1] of 1.1 nM, an IC50 [2] of 1 nM and an IC50 [3] of 4 nM.

Molecule `Cc1cc(Br)cc([C@H](CC(=O)O)NC(=O)CNC(=O)c2cc(O)cc(NC3=NCC(O)CN3)c2)c1` (stereo partly drawn) [Example 11, (3S)-3-[3-bromo-5-methyl-phenyl)-3-(2-(3-hydroxy-5-((5-hydroxy-1,4,5,6-tetrahydropyrimidin-2-yl)amino)benzamido)acetamido)propanoic acid] has an IC50 [1] of 0.7 nM, an IC50 [2] of 0.3 nM and an IC50 [3] of 2 nM.

For `Cc1cc(Cl)cc([C@H](CC(=O)O)NC(=O)CNC(=O)c2cc(O)cc(NC3=NCC(O)CN3)c2)c1` (stereo partly drawn) [Example 12, (3S)-3-[3-chloro-5-methyl-phenyl)-3-(2-(3-hydroxy-5-((5-hydroxy-1,4,5,6-tetrahydropyrimidin-2-yl)amino)benzamido)acetamido)propanoic acid], the IC50 [1] was 0.8 nM, the IC50 [2] was 0.4 nM and the IC50 [3] was 4 nM.

Molecule `O=C(O)C[C@H](NC(=O)CNC(=O)c1cc(O)cc(NC2=NCC(O)CN2)c1)c1cc(F)cc(Br)c1` (stereo partly drawn) [Example 13, (3S)-3-[3-bromo-5-fluoro-phenyl)-3-(2-(3-hydroxy-5-((5-hydroxy-1,4,5,6-tetrahydropyrimidin-2-yl)amino)benzamido)acetamido)propanoic acid] has an IC50 [1] of 0.6 nM, an IC50 [2] of 0.1 nM and an IC50 [3] of 1.7 nM.

`O=C(O)C[C@H](NC(=O)CNC(=O)c1cncc(NC2=NCC(O)CN2)c1)c1cc(Br)cc(Br)c1` (stereo partly drawn) [Example 14, (3S)-3-(3,5-dibromophenyl)-3-[[2-[[5-[(5-hydroxy-1,4,5,6-tetrahydropyrimidin-2-yl)amino]pyridine-3-carbonyl]amino]acetyl]amino]propanoic acid] was tested, and the IC50 [1] was 0.4 nM, the IC50 [2] was 0.1 nM and the IC50 [3] was 0.3 nM.

`O=C(O)C[C@H](NC(=O)CNC(=O)c1cc(O)cc(NC2=NCC(O)CN2)c1)c1cc(Cl)cc(Cl)c1` (stereo partly drawn) [Example 15, (3S)-3-[3,5-dichloro-phenyl)-3-(2-(3-hydroxy-5-((5-hydroxy-1,4,5,6-tetrahydropyrimidin-2-yl)amino)benzamido)acetamido)propanoic acid] gave an IC50 [1] of 1.2 nM, an IC50 [2] of 0.3 nM and an IC50 [3] of 4 nM.
